Measurements as given in the supplement of paper PMC10307832.

Tests used:
Experiment in all cases: relative viability (nuclei count vs DMSO), 5 days (fraction); higher = more cells survive
[1] = compound: C1CC1C(=O)NC2=NNC3=C2C=CC(=C3)C4=CC(=CC=C4)C(=O)NC5CC5 [XMD13-2] + CC(=O)c1c(C)c2cnc(Nc3ccc(N4CCNCC4)cn3)nc2n(C2CCCC2)c1=O [Palbociclib] (partner 0.5 µM)
Method in brief: (§1)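 Dosing by pin tool came one day after lung cancer cell lines were seeded in 1536-well plates, using either one drug or a fixed anchor-drug dose plus five library-drug doses (not always all listed) in √10 steps. After 5 days, nuclei were counted on 4× images. Relative viability is treated-well nuclei count divided by vehicle-well nuclei count, and values are medians of duplicate plates.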

[2] = compound: C1CC1C(=O)NC2=NNC3=C2C=CC(=C3)C4=CC(=CC=C4)C(=O)NC5CC5 [XMD13-2] + CS(=O)(=O)CCNCc1ccc(-c2ccc3ncnc(Nc4ccc(OCc5cccc(F)c5)c(Cl)c4)c3c2)o1 [Lapatinib] (partner 2 µM)
Method in brief: as §1

[3] = compound: Cc1nc(Nc2ncc(C(=O)Nc3c(C)cccc3Cl)s2)cc(N2CCN(CCO)CC2)n1 [Dasatinib] + Cc1cc(Nc2cc(N3CCN(C)CC3)nc(Sc3ccc(NC(=O)C4CC4)cc3)n2)n[nH]1 [Tozasertib] (partner 0.1 µM)
Method in brief: as §1

[4] = compound: Cc1nc(Nc2ncc(C(=O)Nc3c(C)cccc3Cl)s2)cc(N2CCN(CCO)CC2)n1 [Dasatinib] + Cc1nc(NC(=O)N2CCC[C@H]2C(N)=O)sc1-c1ccnc(C(C)(C)C(F)(F)F)c1 [Alpelisib] (partner 2 µM)
Method in brief: as §1

Cell Line | relative viability ([1]; first compound 0.05 µM) | relative viability ([1]; first compound 0.1581 µM) | relative viability ([1]; first compound 0.5 µM) | relative viability ([1]; first compound 1.581 µM) | relative viability ([1]; first compound 5 µM) | relative viability ([2]; first compound 0.05 µM) | relative viability ([2]; first compound 0.1581 µM) | relative viability ([2]; first compound 0.5 µM) | relative viability ([2]; first compound 1.581 µM) | relative viability ([2]; first compound 5 µM) | relative viability ([3]; first compound 0.005 µM) | relative viability ([3]; first compound 0.01581 µM) | relative viability ([3]; first compound 0.05 µM) | relative viability ([3]; first compound 0.1581 µM) | relative viability ([3]; first compound 0.5 µM) | relative viability ([4]; first compound 0.005 µM) | relative viability ([4]; first compound 0.01581 µM) | relative viability ([4]; first compound 0.05 µM) | relative viability ([4]; first compound 0.1581 µM) | relative viability ([4]; first compound 0.5 µM)
COR-L 105 | 0.405 | 0.412 | 0.4 | 0.404 | 0.42 | 0.395 | 0.319 | 0.426 | 0.346 | 0.27 | 0.375 | 0.299 | 0.332 | 0.228 | 0.208 | 0.671 | 0.486 | 0.715 | 0.452 | 0.209
LU99A | 0.402 | 0.38 | 0.391 | 0.402 | 0.27 | 1.21 | 0.975 | 1.02 | 0.858 | 0.42 | 0.233 | – | 0.243 | 0.209 | 0.23 | 0.494 | 0.5 | 0.477 | 0.288 | 0.192
H3255 | 0.316 | 0.291 | 0.309 | 0.334 | 0.306 | 0.444 | 0.223 | 0.297 | 0.199 | 0.201 | 0.721 | 0.543 | 0.463 | 0.547 | 0.322 | 0.68 | 0.621 | 0.63 | 0.434 | 0.24
NCI-H1734 | 0.413 | 0.332 | 0.361 | 0.358 | 0.297 | 1.28 | 0.995 | 0.735 | 0.935 | 0.85 | 0.26 | 0.285 | 0.235 | 0.165 | 0.181 | 0.553 | 0.477 | 0.469 | 0.346 | 0.278
NCI-H650 | 0.321 | 0.335 | 0.33 | 0.305 | 0.31 | 0.993 | 1.06 | 0.94 | 0.752 | 0.829 | 0.705 | 0.665 | 0.755 | 0.619 | 0.42 | 1.16 | 1.05 | 1.04 | 0.726 | 0.428
NCI-H1915 | 0.56 | 0.509 | 0.529 | 0.481 | 0.509 | 1.07 | 1.01 | 1 | 1 | 0.94 | 0.435 | 0.372 | 0.301 | 0.173 | 0.157 | 1.01 | 0.979 | 0.933 | 0.395 | 0.311
NCI-H2009 | 0.244 | 0.229 | 0.215 | 0.204 | 0.153 | 0.914 | 1.03 | 1.16 | 0.894 | 0.519 | 0.738 | 0.65 | 0.679 | 0.4 | 0.179 | 1.15 | 0.956 | 1.04 | 0.88 | 0.204
NCI-H1651 | 0.543 | 0.507 | 0.508 | 0.527 | 0.503 | 1.09 | 0.78 | 0.906 | 1.09 | 0.751 | 0.679 | 0.611 | 0.724 | 0.522 | 0.656 | 0.899 | 0.853 | 0.66 | 0.544 | 0.619
HOP-62 | 0.464 | 0.485 | 0.448 | 0.413 | 0.348 | 1.17 | 1.02 | 1.09 | 1.25 | 1.07 | 0.387 | 0.372 | 0.393 | 0.315 | 0.242 | 1.27 | 1.02 | 0.838 | 0.679 | 0.272
CAL-12T | 0.567 | 0.418 | 0.478 | 0.504 | 0.371 | 0.627 | – | 0.795 | 0.537 | 0.46 | 0.386 | 0.346 | 0.297 | 0.228 | 0.112 | 1.15 | 1.03 | 1.62 | 1.13 | 0.355
NCI-H3122 | 0.191 | 0.202 | 0.142 | 0.177 | 0.181 | 1.04 | 1.03 | 0.99 | 0.982 | 0.848 | 0.38 | 0.388 | 0.414 | 0.373 | 0.292 | 0.835 | 0.858 | 0.87 | 0.693 | 0.718
NCI-H1395 | 0.757 | 0.634 | 0.631 | 0.656 | 0.715 | 1.56 | 0.997 | 1.08 | 0.908 | 0.945 | 0.819 | 0.713 | 0.723 | 0.555 | 0.4 | 0.896 | 0.926 | 0.947 | 0.544 | 0.519
PC-14 | 0.597 | 0.526 | 0.517 | 0.586 | 0.568 | 0.38 | 0.324 | 0.39 | 0.337 | 0.345 | 0.54 | 0.583 | 0.514 | 0.667 | 0.227 | 0.916 | 0.85 | 0.734 | 0.546 | 0.185
BEN | 0.462 | 0.508 | 0.492 | 0.489 | 0.468 | 0.954 | 0.829 | 0.802 | 0.597 | 0.621 | 0.516 | 0.412 | 0.489 | 0.415 | 0.406 | 0.857 | 0.536 | 0.611 | 0.342 | 0.365
EPLC-272H | 0.314 | 0.344 | 0.329 | 0.279 | 0.317 | 1.09 | 0.897 | 1.01 | 0.817 | 0.911 | 0.254 | 0.282 | 0.222 | 0.137 | 0.122 | 1.08 | 0.913 | 1.02 | 0.777 | 0.244
LK-2 | 0.666 | 0.557 | 0.698 | 0.776 | 0.593 | 0.977 | 0.912 | 1.12 | 1.03 | 0.743 | 0.16 | 0.15 | 0.141 | 0.173 | 0.148 | 1.04 | 0.764 | 0.449 | 0.312 | 0.275
